Reference: PubChem BioAssay (NCI)
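In this assay, cells in 96-well plates receive the compound at five concentrations for 48 hours. Endpoints are linearly interpolated between the surrounding concentrations. TGI: concentration producing complete growth inhibition.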

Legend:
Assay in all cases: NCI tumour cell line growth inhibition, 48 h
MCF7 breast = test system: MCF7 breast
NCI-H522 lung = test system: NCI-H522 lung
HOP-62 NSCLC = test system: HOP-62 NSCLC
A549 NSCLC = test system: A549 NSCLC
UO-31 renal = test system: UO-31 renal
HOP-92 NSCLC = test system: HOP-92 NSCLC
SF-268 CNS = test system: SF-268 CNS
CAKI-1 renal = test system: CAKI-1 renal
SK-MEL-2 melanoma = test system: SK-MEL-2 melanoma
SF-295 CNS = test system: SF-295 CNS
SN12C renal = test system: SN12C renal
IGROV1 ovarian = test system: IGROV1 ovarian
COLO 205 colon = test system: COLO 205 colon
OVCAR-3 ovarian = test system: OVCAR-3 ovarian
TK-10 renal = test system: TK-10 renal
A498 renal = test system: A498 renal
HL-60(TB) leukemia = test system: HL-60(TB) leukemia
K-562 leukemia = test system: K-562 leukemia
MDA-N = test system: MDA-N
MDA-MB-435 = test system: MDA-MB-435
SR leukemia = test system: SR leukemia
SK-MEL-5 melanoma = test system: SK-MEL-5 melanoma
CCRF-CEM leukemia = test system: CCRF-CEM leukemia
OVCAR-5 ovarian = test system: OVCAR-5 ovarian
MALME-3M melanoma = test system: MALME-3M melanoma
DU-145 prostate = test system: DU-145 prostate
RXF 393 renal = test system: RXF 393 renal
OVCAR-8 ovarian = test system: OVCAR-8 ovarian
OVCAR-4 ovarian = test system: OVCAR-4 ovarian
SK-MEL-28 melanoma = test system: SK-MEL-28 melanoma
BT-549 breast = test system: BT-549 breast
NCI-H460 lung = test system: NCI-H460 lung
U251 CNS = test system: U251 CNS
HCT-15 colon = test system: HCT-15 colon
SNB-75 CNS = test system: SNB-75 CNS
MOLT-4 leukemia = test system: MOLT-4 leukemia
UACC-257 melanoma = test system: UACC-257 melanoma
EKVX NSCLC = test system: EKVX NSCLC
M14 melanoma = test system: M14 melanoma
KM12 colon = test system: KM12 colon
RPMI-8226 leukemia = test system: RPMI-8226 leukemia
786-0 renal = test system: 786-0 renal
NCI-H226 lung = test system: NCI-H226 lung
HCC-2998 colon = test system: HCC-2998 colon
HCT-116 colon = test system: HCT-116 colon
HT29 colon = test system: HT29 colon
SNB-19 CNS = test system: SNB-19 CNS
MDA-MB-231 breast = test system: MDA-MB-231 breast
NCI-H23 lung = test system: NCI-H23 lung
PC-3 prostate = test system: PC-3 prostate
SW-620 colon = test system: SW-620 colon
ACHN renal = test system: ACHN renal
NCI/ADR-RES ovarian = test system: NCI/ADR-RES ovarian
SF-539 CNS = test system: SF-539 CNS
HS 578T breast = test system: HS 578T breast
LOX IMVI melanoma = test system: LOX IMVI melanoma
SK-OV-3 ovarian = test system: SK-OV-3 ovarian
UACC-62 melanoma = test system: UACC-62 melanoma
T-47D breast = test system: T-47D breast

## CCN(CC)CCC(=O)/C=C/c1ccccc1
MCF7 breast
  TGI: 10.6 µM
NCI-H522 lung
  TGI: 24.2 µM
HOP-62 NSCLC
  TGI: 54.5 µM
A549 NSCLC
  TGI: 39.9 µM
UO-31 renal
  TGI: 25.8 µM
HOP-92 NSCLC
  TGI: 28.7 µM
SF-268 CNS
  TGI: 15.6 µM
CAKI-1 renal
  TGI: 14.1 µM
SK-MEL-2 melanoma
  TGI: 65.5 µM
SF-295 CNS
  TGI: 40.1 µM
SN12C renal
  TGI: 38.6 µM
IGROV1 ovarian
  TGI: 35.5 µM
COLO 205 colon
  TGI: 18 µM
OVCAR-3 ovarian
  TGI: 12.1 µM
TK-10 renal
  TGI: 32.3 µM
A498 renal
  TGI: > 60.6 µM
HL-60(TB) leukemia
  TGI: > 100 µM
K-562 leukemia
  TGI: 13.6 µM
MDA-N
  TGI: 26.4 µM
MDA-MB-435
  TGI: 23.2 µM
SR leukemia
  TGI: 16.1 µM
SK-MEL-5 melanoma
  TGI: 44.8 µM
CCRF-CEM leukemia
  TGI: > 47.2 µM
OVCAR-5 ovarian
  TGI: 31.3 µM
MALME-3M melanoma
  TGI: 33.1 µM
DU-145 prostate
  TGI: > 73.9 µM
RXF 393 renal
  TGI: 21.5 µM
OVCAR-8 ovarian
  TGI: 52.5 µM
OVCAR-4 ovarian
  TGI: > 94.4 µM
SK-MEL-28 melanoma
  TGI: 30.8 µM
BT-549 breast
  TGI: 21.9 µM
NCI-H460 lung
  TGI: 32.6 µM
U251 CNS
  TGI: 25.6 µM
HCT-15 colon
  TGI: 32 µM
SNB-75 CNS
  TGI: 28.8 µM
MOLT-4 leukemia
  TGI: 24.2 µM
UACC-257 melanoma
  TGI: 31.6 µM
EKVX NSCLC
  TGI: 22.6 µM
M14 melanoma
  TGI: 33 µM
KM12 colon
  TGI: 18.5 µM
RPMI-8226 leukemia
  TGI: 7.5 µM
786-0 renal
  TGI: 7.62 µM
NCI-H226 lung
  TGI: 44.9 µM
HCC-2998 colon
  TGI: 34.8 µM
HCT-116 colon
  TGI: 22.4 µM
HT29 colon
  TGI: 12.4 µM
SNB-19 CNS
  TGI: 37.1 µM
MDA-MB-231 breast
  TGI: 28.9 µM
NCI-H23 lung
  TGI: 48.1 µM
PC-3 prostate
  TGI: 27.3 µM
SW-620 colon
  TGI: 23.4 µM
ACHN renal
  TGI: 26.2 µM
NCI/ADR-RES ovarian
  TGI: 55.1 µM
SF-539 CNS
  TGI: 37.5 µM
HS 578T breast
  TGI: 39.9 µM
LOX IMVI melanoma
  TGI: 7.16 µM

## N#Cc1c(-c2ccc(Cl)cc2)c2c([nH]c1=O)-c1ccccc1SC2
MCF7 breast
  TGI: > 100 µM
HOP-62 NSCLC
  TGI: > 100 µM
A549 NSCLC
  TGI: > 100 µM
UO-31 renal
  TGI: > 100 µM
HOP-92 NSCLC
  TGI: 71.9 µM
SF-268 CNS
  TGI: > 100 µM
CAKI-1 renal
  TGI: > 100 µM
SK-MEL-2 melanoma
  TGI: > 100 µM
SF-295 CNS
  TGI: > 100 µM
SN12C renal
  TGI: > 100 µM
IGROV1 ovarian
  TGI: > 100 µM
COLO 205 colon
  TGI: 50.3 µM
OVCAR-3 ovarian
  TGI: 92.7 µM
TK-10 renal
  TGI: 52.9 µM
A498 renal
  TGI: > 100 µM
HL-60(TB) leukemia
  TGI: 56.7 µM
K-562 leukemia
  TGI: > 100 µM
MDA-N
  TGI: > 100 µM
MDA-MB-435
  TGI: > 100 µM
SR leukemia
  TGI: > 100 µM
SK-MEL-5 melanoma
  TGI: > 100 µM
CCRF-CEM leukemia
  TGI: 88.6 µM
OVCAR-5 ovarian
  TGI: > 100 µM
MALME-3M melanoma
  TGI: > 100 µM
DU-145 prostate
  TGI: > 100 µM
RXF 393 renal
  TGI: 77.4 µM
OVCAR-8 ovarian
  TGI: > 100 µM
OVCAR-4 ovarian
  TGI: > 100 µM
SK-MEL-28 melanoma
  TGI: > 100 µM
BT-549 breast
  TGI: > 100 µM
NCI-H460 lung
  TGI: > 100 µM
U251 CNS
  TGI: > 100 µM
HCT-15 colon
  TGI: > 100 µM
SNB-75 CNS
  TGI: 69.5 µM
SK-OV-3 ovarian
  TGI: > 100 µM
MOLT-4 leukemia
  TGI: 94.8 µM
UACC-257 melanoma
  TGI: > 100 µM
EKVX NSCLC
  TGI: 70.8 µM
M14 melanoma
  TGI: > 100 µM
KM12 colon
  TGI: > 100 µM
RPMI-8226 leukemia
  TGI: 98.8 µM
786-0 renal
  TGI: > 100 µM
NCI-H226 lung
  TGI: > 100 µM
HCT-116 colon
  TGI: > 100 µM
HT29 colon
  TGI: > 100 µM
SNB-19 CNS
  TGI: > 100 µM
MDA-MB-231 breast
  TGI: > 100 µM
NCI-H23 lung
  TGI: > 100 µM
PC-3 prostate
  TGI: > 100 µM
UACC-62 melanoma
  TGI: > 100 µM
SW-620 colon
  TGI: > 100 µM
NCI/ADR-RES ovarian
  TGI: > 100 µM
SF-539 CNS
  TGI: 68 µM
HS 578T breast
  TGI: > 100 µM
LOX IMVI melanoma
  TGI: 73.9 µM

## CCc1cc2c(oc3cc4ccccc4cc32)c(=O)[nH]1
NCI-H522 lung
  TGI: > 10 µM
A549 NSCLC
  TGI: > 10 µM
UO-31 renal
  TGI: > 10 µM
HOP-92 NSCLC
  TGI: > 10 µM
SF-268 CNS
  TGI: > 10 µM
SK-MEL-2 melanoma
  TGI: > 10 µM
SF-295 CNS
  TGI: > 10 µM
SN12C renal
  TGI: > 10 µM
IGROV1 ovarian
  TGI: > 10 µM
OVCAR-3 ovarian
  TGI: > 10 µM
TK-10 renal
  TGI: > 10 µM
HL-60(TB) leukemia
  TGI: > 10 µM
MDA-N
  TGI: > 10 µM
SR leukemia
  TGI: > 10 µM
OVCAR-5 ovarian
  TGI: > 10 µM
MALME-3M melanoma
  TGI: > 10 µM
DU-145 prostate
  TGI: > 10 µM
RXF 393 renal
  TGI: > 10 µM
OVCAR-8 ovarian
  TGI: > 10 µM
OVCAR-4 ovarian
  TGI: > 10 µM
BT-549 breast
  TGI: > 10 µM
NCI-H460 lung
  TGI: > 10 µM
HCT-15 colon
  TGI: > 10 µM
SNB-75 CNS
  TGI: > 10 µM
UACC-257 melanoma
  TGI: > 10 µM
EKVX NSCLC
  TGI: > 10 µM
M14 melanoma
  TGI: > 10 µM
KM12 colon
  TGI: > 10 µM
786-0 renal
  TGI: > 10 µM
NCI-H226 lung
  TGI: > 10 µM
HCC-2998 colon
  TGI: > 10 µM
HCT-116 colon
  TGI: > 10 µM
HT29 colon
  TGI: > 10 µM
SNB-19 CNS
  TGI: > 10 µM
MDA-MB-231 breast
  TGI: > 10 µM
PC-3 prostate
  TGI: > 10 µM
SW-620 colon
  TGI: > 10 µM
ACHN renal
  TGI: > 10 µM
NCI/ADR-RES ovarian
  TGI: > 10 µM
SF-539 CNS
  TGI: > 10 µM
HS 578T breast
  TGI: > 10 µM
LOX IMVI melanoma
  TGI: > 10 µM

## O=C(NCC(=O)N1CCCC1C(=O)OC(=O)C1CCCN1C(=O)CNC(=O)OCc1ccccc1)OCc1ccccc1 (stereo unspecified)
MCF7 breast
  TGI: 60 µM
NCI-H522 lung
  TGI: > 100 µM
HOP-62 NSCLC
  TGI: 77 µM
A549 NSCLC
  TGI: > 100 µM
UO-31 renal
  TGI: > 100 µM
HOP-92 NSCLC
  TGI: > 100 µM
SF-268 CNS
  TGI: 89 µM
CAKI-1 renal
  TGI: > 100 µM
SK-MEL-2 melanoma
  TGI: 44.8 µM
SF-295 CNS
  TGI: 47.8 µM
SN12C renal
  TGI: > 100 µM
IGROV1 ovarian
  TGI: > 100 µM
COLO 205 colon
  TGI: 33.9 µM
OVCAR-3 ovarian
  TGI: > 100 µM
TK-10 renal
  TGI: 49.7 µM
A498 renal
  TGI: > 100 µM
HL-60(TB) leukemia
  TGI: 70.3 µM
K-562 leukemia
  TGI: 72.8 µM
MDA-N
  TGI: > 100 µM
MDA-MB-435
  TGI: 68.3 µM
SR leukemia
  TGI: > 100 µM
SK-MEL-5 melanoma
  TGI: 62.3 µM
CCRF-CEM leukemia
  TGI: > 100 µM
OVCAR-5 ovarian
  TGI: 90.1 µM
MALME-3M melanoma
  TGI: 64.8 µM
DU-145 prostate
  TGI: > 100 µM
RXF 393 renal
  TGI: 64.5 µM
OVCAR-8 ovarian
  TGI: > 100 µM
OVCAR-4 ovarian
  TGI: > 100 µM
SK-MEL-28 melanoma
  TGI: 70.4 µM
NCI-H460 lung
  TGI: > 100 µM
U251 CNS
  TGI: > 100 µM
HCT-15 colon
  TGI: > 100 µM
SNB-75 CNS
  TGI: 57.2 µM
SK-OV-3 ovarian
  TGI: > 100 µM
MOLT-4 leukemia
  TGI: 67.1 µM
UACC-257 melanoma
  TGI: 52.1 µM
EKVX NSCLC
  TGI: > 100 µM
M14 melanoma
  TGI: 45.7 µM
KM12 colon
  TGI: > 100 µM
RPMI-8226 leukemia
  TGI: 70.2 µM
786-0 renal
  TGI: > 100 µM
NCI-H226 lung
  TGI: 66.2 µM
HCC-2998 colon
  TGI: > 100 µM
HCT-116 colon
  TGI: > 100 µM
HT29 colon
  TGI: 79.2 µM
SNB-19 CNS
  TGI: > 100 µM
MDA-MB-231 breast
  TGI: 54.7 µM
NCI-H23 lung
  TGI: > 100 µM
PC-3 prostate
  TGI: > 100 µM
UACC-62 melanoma
  TGI: 34.6 µM
SW-620 colon
  TGI: > 100 µM
ACHN renal
  TGI: > 100 µM
NCI/ADR-RES ovarian
  TGI: > 100 µM
SF-539 CNS
  TGI: 40.6 µM
HS 578T breast
  TGI: > 100 µM
T-47D breast
  TGI: > 100 µM
LOX IMVI melanoma
  TGI: 36.2 µM
